Entries after “also recorded” stand apart in the source; their conditions may differ.

The subject of one assay is tankyrases. As to conditions: in vitro assays; cited from earlier work.
The next assay addresses T1, telomerase (Homo sapiens, UniProt O14746).
T1 construct: expressed in transfected cells; host or cells: 293TREx-0611 cells overexpressing TPP1, POT1 and hTERT, transfected with U1-hTR; whole cell lysate
Nature of the assay: Direct telomerase activity assay in lysates of treated cells. The class given is cell-based. The settings on record: 293TREx-0611 cells; 30 μM KU55933 or 5 μM Olaparib for two hours. As for the experimental part:
Telomerase is known to be phosphorylated, so whether the KU55933 or Olaparib treatment of cells might directly affect telomerase activity was examined. […] ATM kinase is a positive regulator of telomere elongation in both mouse and human cells, and the effects of ATM inhibition are not due to inhibition of telomerase enzyme activity.
Telomerase activity was assayed in whole cell lysates with a modified protocol (Nandakumar et al., 2012, Nature 492, 285-289). 293TREx-0611 cells overexpressing TPP1, POT1, and hTERT were seeded (3×10^5 cells) per well in a poly-D-Lysine coated 6-well plate. The next day, cells were transfected with U1-hTR using Lipofectamine™ 3000 and incubated overnight. Then, they were treated with 30 μM KU55933, 5 μM Olaparib, or DMSO for two hours before harvesting in 100 μl 1×CHAPS. Cells were lysed on ice for 30 minutes, vortexing occasionally, and cleared by spinning (8000 rpm, 20 min, 4° C.). For negative controls, 25 μl cleared lysate was incubated at 65° C. with 1 μl RNaseA (1 mg/ml) for 10 minutes. For direct telomerase assays, lysates were incubated with primer a5 (Wang et al., 2007) in 1× telomerase buffer (50 mM Tris-Cl, 30 mM KCl, 1 mM MgCl2, 1 mM spermidine), 0.5 mM dTTP, 0.5 mM dATP, 2.92 μM dGTP, and 0.33 μM α32P-dGTP at 30° C. Reactions were stopped at 10 or 15 minutes with 20 mM EDTA, 10 mM Tris spiked with 500 cpm end-labeled 18mer. […]

The next assay has as its system PARP1-4. As to conditions: in vitro assays; cited from earlier work.
A further assay deals with PARP1. Kind of assay: Western blot of PARylation with antibody against poly ADP-ribose. The assay is classed as cell-based. The settings on record: antibody directed against poly ADP-ribose.
For the next assay, the system named is ATM. Kind of assay: Western blot of ATM signaling (phospho-Kap1, phospho-ATM). The class given is cell-based, mouse. The text has this: (§1) To probe the role of ATM, the ADDIT assay was used in cells treated with the ATM specific inhibitor KU55933 (as described in Hickson et al., 2004, Cancer Research 64, 9152-9159) or with siRNA to ATM. To confirm the inhibition of ATM, the phosphorylation level was examined of the ATM substrate Kap1 and, as a control, an ATR kinase substrate Chk1 by western blot. Cultured cells were pretreated with KU55933, siA™ or DMSO control and then exposed to camptothecin (CPT), a DNA damaging agent.
To further probe the role of ATM in telomere length, ATM was activated in cultured cells. […] PARP is an essential enzyme involved in recognition and repair of DNA breaks. […] Similar to wild-type control, the most common class of telomere addition was Class 3 that creates the most complementarity between the 3′ end and the mTR sequence (Table 3). To examine whether this stimulation of telomere elongation acts through ATM, epistasis was examined by treating cells with both Olaparib and KU55933.
To detect phospho-proteins, 1× lysis buffer made of final concentration of 1×RIPA™ (Cell Signaling, #98016S), 1× protease inhibitor cocktail, 1× PhosSTOP™ (Roche, 4906845001) was added directly to cells on the dish after washing with PBS. Protein concentration was measured with a BCA protein assay kit (Thermo, #23227). Typically 10 μg of protein from each sample was applied to SDS-PAGE gels (Biorad, #456-1084) and transferred to nitrocellulose membranes in transfer buffer. After blocking with the Odyssey™ blocking buffer (LI-COR, #927-40000), membranes were incubated at 4° C. overnight or 1 hr at RT with the following primary antibodies: anti-phospho-Kap1 (Bethyl Lab, #A300-767A); anti-phospho-CHK1 (Cell Signaling, #2348S); anti-phospho-ATM (Millipore, #05-740); anti-HA (Santa Cruz, #sc-7392); anti-Actin (Santa Cruz, #sc-1616); anti-PAR (Trevigen, #4335-MC-100). […] Band intensities were quantified using the Odyssey™ software (LI-COR) and normalized to Actin levels. […]

The subject of assay [1] is ATR kinase substrate Chk1. Nature of the assay: Western blot of ATR kinase substrate Chk1 phosphorylation. The class given is cell-based, mouse. The settings on record: cells pretreated, then exposed to camptothecin (CPT).
Text: as §1
To detect phospho-proteins, 1× lysis buffer made of final concentration of 1×RIPA™ (Cell Signaling, #98016S), 1× protease inhibitor cocktail, 1× PhosSTOP™ (Roche, 4906845001) was added directly to cells on the dish after washing with PBS. Protein concentration was measured with a BCA protein assay kit (Thermo, #23227). Typically 10 μg of protein from each sample was applied to SDS-PAGE gels (Biorad, #456-1084) and transferred to nitrocellulose membranes in transfer buffer. […] Band intensities were quantified using the Odyssey™ software (LI-COR) and normalized to Actin levels. […]

Another assay concerns human HCT116. Nature of the assay: Bulk telomere length, Southern blot, HCT116. The class given is cell-based. The settings on record: HCT116 cells.
The test system of a further assay is HT1080 cells. Kind of assay: Bulk telomere length, Southern blot, HT1080. The class given is cell-based, human.
The subject of another assay is SL13 cells. Kind of assay: Telomere Southern blot after lentiviral overexpression of mTR and mTERT. The class given is cell-based, mouse. The settings on record: SL13 cells transduced with lentivirus expressing mTR and mTERT; day 6.

T1 sequence (O14746 whole entry): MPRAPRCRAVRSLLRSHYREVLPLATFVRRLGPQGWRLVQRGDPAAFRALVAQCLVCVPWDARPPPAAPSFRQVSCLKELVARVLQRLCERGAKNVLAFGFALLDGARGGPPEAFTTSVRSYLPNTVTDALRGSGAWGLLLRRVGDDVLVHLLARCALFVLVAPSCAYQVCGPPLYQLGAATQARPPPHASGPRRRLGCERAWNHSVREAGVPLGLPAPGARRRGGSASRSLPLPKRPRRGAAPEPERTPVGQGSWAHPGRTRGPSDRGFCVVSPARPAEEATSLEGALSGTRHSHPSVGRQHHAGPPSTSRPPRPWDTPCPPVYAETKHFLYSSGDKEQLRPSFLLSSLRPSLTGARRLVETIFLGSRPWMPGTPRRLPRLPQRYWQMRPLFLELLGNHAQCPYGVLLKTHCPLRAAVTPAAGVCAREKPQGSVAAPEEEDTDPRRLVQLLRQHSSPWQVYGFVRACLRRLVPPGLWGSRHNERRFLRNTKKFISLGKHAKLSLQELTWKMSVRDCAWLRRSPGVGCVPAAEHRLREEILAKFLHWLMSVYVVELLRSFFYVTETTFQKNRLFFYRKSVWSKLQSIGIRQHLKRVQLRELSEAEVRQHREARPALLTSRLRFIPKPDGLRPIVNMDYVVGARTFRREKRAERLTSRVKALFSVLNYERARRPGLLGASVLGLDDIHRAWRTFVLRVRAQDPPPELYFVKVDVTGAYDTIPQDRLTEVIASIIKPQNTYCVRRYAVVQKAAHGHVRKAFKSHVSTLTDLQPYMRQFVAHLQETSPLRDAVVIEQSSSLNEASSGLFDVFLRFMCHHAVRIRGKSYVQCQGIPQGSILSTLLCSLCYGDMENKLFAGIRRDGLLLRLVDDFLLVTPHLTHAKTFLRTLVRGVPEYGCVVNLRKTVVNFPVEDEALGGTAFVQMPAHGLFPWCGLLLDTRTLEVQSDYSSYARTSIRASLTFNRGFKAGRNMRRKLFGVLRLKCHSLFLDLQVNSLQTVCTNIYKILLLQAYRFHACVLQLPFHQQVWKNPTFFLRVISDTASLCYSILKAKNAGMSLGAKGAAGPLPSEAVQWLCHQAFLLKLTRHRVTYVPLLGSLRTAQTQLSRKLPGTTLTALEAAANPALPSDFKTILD
T1 sequence (O60832 whole entry partner): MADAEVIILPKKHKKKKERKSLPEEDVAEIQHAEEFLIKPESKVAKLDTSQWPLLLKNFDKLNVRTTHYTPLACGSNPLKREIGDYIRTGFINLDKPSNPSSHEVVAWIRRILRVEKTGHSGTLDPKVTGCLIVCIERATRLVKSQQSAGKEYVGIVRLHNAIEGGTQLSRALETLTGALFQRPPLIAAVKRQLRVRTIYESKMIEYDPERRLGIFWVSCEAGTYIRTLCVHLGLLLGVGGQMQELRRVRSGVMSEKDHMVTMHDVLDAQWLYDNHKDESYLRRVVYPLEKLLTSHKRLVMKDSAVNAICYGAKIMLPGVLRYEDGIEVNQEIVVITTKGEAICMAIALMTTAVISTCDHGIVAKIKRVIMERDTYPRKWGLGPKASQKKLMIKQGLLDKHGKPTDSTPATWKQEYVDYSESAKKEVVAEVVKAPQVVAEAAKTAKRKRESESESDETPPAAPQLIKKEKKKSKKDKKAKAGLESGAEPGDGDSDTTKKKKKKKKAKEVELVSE
T1 sequence (Q9NPE3 whole entry partner): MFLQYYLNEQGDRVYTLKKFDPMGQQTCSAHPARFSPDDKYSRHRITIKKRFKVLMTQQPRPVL
T1 sequence (Q9NX24 whole entry partner): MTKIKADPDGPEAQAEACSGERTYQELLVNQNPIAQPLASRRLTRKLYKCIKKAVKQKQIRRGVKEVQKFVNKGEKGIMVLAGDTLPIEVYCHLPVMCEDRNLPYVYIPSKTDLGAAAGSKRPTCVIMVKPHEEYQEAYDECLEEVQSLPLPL
T1 sequence (Q9NY12 whole entry partner): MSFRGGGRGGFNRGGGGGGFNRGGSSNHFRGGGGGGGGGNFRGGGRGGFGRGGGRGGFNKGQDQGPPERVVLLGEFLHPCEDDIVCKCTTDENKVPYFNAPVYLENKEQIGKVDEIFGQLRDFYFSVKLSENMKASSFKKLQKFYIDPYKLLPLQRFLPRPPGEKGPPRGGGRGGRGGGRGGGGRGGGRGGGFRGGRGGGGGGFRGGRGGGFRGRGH

As for `O=C(c1cc(Cc2n[nH]c(=O)c3ccccc23)ccc1F)N1CCN(C(=O)C2CC2)CC1` [Olaparib], the effect on tankyrases result in the assay with tankyrases was “little effect on tankyrases”. Besides, on telomerase, the telomerase activity entry is recorded as “no change in telomerase activity”. In addition, in the assay with PARP1-4, the “specificity to PARP1-4” value is given as “highly specific to PARP1-4”. Besides, the PARylation entry in the assay on PARP1 is on record as “inhibited PARylation”. Moreover, the “phosphorylation of ATM-S1981” value in the assay on ATM (Olaparib-treated cells) was “increased phosphorylation of ATM-S1981”. Besides, in the assay on ATM (compared to DMSO-treated control cells), the “Kap1 phosphorylation in response to PARP1 inhibition” value was “increased ATM phosphorylation of Kap1; also recorded: increased level of Kap1 phosphorylation”.

Take `O=c1cc(-c2cccc3c2Sc2ccccc2S3)oc(N2CCOCC2)c1` [KU55933]: in assay [1], the Chk1-S345 phosphorylation entry was “not Chk1 phosphorylation”. In addition, on telomerase, the telomerase activity result was “no change in telomerase activity”. In addition, the bulk telomere length entry is given as “telomere shortening” with human HCT116 and “shortens bulk telomeres” with HT1080 cells. Further, the Kap1-S824 phosphorylation entry in the assay on ATM (cells pretreated, then exposed to camptothecin (CPT)) is “blocked Kap1 phosphorylation”. In the assay on SL13 cells, the “telomere elongation on overexpression of telomerase (Southern blot)” value was “blocked this telomere elongation”.

The record behind these values is patent publication US20180110777A1, “METHOD FOR REGULATION OF TELOMERE LENGTH” (The Johns Hopkins University, priority 2015, published 2018).
